28 compounds from US20230406843A1, “Progranulin Modulators and Methods of Using the Same” (ARKUDA THERAPEUTICS, priority 2020, published 2023) can be followed below.

Structures can show the parent of a compound that is named as a salt.

One test has as its system progranulin. Put plainly: Progranulin induction cellular assay (ELISA of secreted mouse PGRN). Conditions: Mus musculus, BV-2, read-out: EC50 μM. It counts as cell-based. The procedure:
Cellular Assays: Progranulin induction assay. To measure the efficacy of compounds, a progranulin induction cellular assay in mouse primary microglia (pMG), primary cortical neurons, and BV-2 cell lines is used. BV-2 cells are split the day before plating into a 96 well plate format at approximately 80%. Cells should be plated the day before and allowed for 1 hour attachment period and for 16 hour incubation. Levels of progranulin secreted into the cell culture medium or retained in the cell lysate can be quantified using an ELISA-based readout and measurement of secreted mouse PGRN in the medium was assessed by the methodology published by Ghidoni et al. 2012. Standard ELISA kits to measure PGRN are available from vendors such as Adipogen, R&D, and Biovendor.
Table B below presents the results of a progranulin induction assay as described above.
For orientation: An ELISA detects its analyte on a solid surface through an enzyme-linked reagent.
Turning to `COC[C@@]1(N)CC[C@H](C(=O)N2CCc3ccccc3[C@@H]2c2ccc(F)cc2)OC1` [Compound 5220, ((2R,5S)-5-amino-5-(methoxymethyl)tetrahydro-2H-pyran-2-yl)((S)-1-(4-fluorophenyl)-3,4-dihydroisoquinolin-2(1H)-yl)methanone], the EC50 is 0.081 µM. On the same count and under the same terms, then `CCNC[C@]1(O)CO[C@H](C(=O)N2CCc3ccccc3[C@@H]2c2ccc(F)cc2)C1` [Compound 5024, ((2S,4S)-4-((ethylamino)methyl)-4-hydroxytetrahydrofuran-2-yl)((S)-1-(4-fluorophenyl)-3,4-dihydroisoquinolin-2(1H)-yl)methanone], with 0.749 µM. Take `C#CCO[C@H]1CO[C@@H](C(=O)N2CCc3ccccc3[C@@H]2c2ccc(F)cc2)C[C@@H]1N` [Compound 5541, ((2R,4S,5R)-4-amino-5-(prop-2-yn-1-yloxy)tetrahydro-2H-pyran-2-yl)((S)-1-(4-fluorophenyl)-3,4-dihydroisoquinolin-2(1H)-yl)methanone]: the 50% effective concentration (EC50) is 0.001 µM.

The test is the same for the next values; noted with them: progranulin induction assay; mouse pMG, primary cortical neurons and BV-2 cell lines named, cell type not given; ELISA-based readout; read-out: EC50.
Turning to `N[C@@H]1C[C@H](C(=O)N2CCc3ccccc3[C@@H]2c2ccc(F)cc2)OC[C@@H]1F` [Compound 5250, ((2R,4R,5R)-4-amino-5-fluorotetrahydro-2H-pyran-2-yl)((S)-1-(4-fluorophenyl)-3,4-dihydroisoquinolin-2(1H)-yl)methanone], the EC50 came out at 0.095 µM. In the case of `C[C@@H]1C[C@@H](C(=O)N2CCc3ccccc3[C@@H]2c2ccc(F)cc2)OC[C@@H]1N` [Compound 5084, ((2S,4R,5R)-5-amino-4-methyltetrahydro-2H-pyran-2-yl)((S)-1-(4-fluorophenyl)-3,4-dihydroisoquinolin-2(1H)-yl)methanone], the concentration for a half-maximal effect (EC50) stood at 0.18 µM. In the case of `CO[C@H]1CO[C@@H](C(=O)N2CCc3ccccc3[C@@H]2c2ccc(F)cc2)C[C@@H]1NCC(F)(F)F` [Compound 5577], the EC50 is > 0.3 µM. Take `O=C([C@@H]1CCNCCO1)N1CCc2ccccc2[C@@H]1c1ccc(F)cc1F` (single isomer, unassigned) [Compound 5264]: the EC50 amounted to 0.048 µM. Same read-out and setting: then `O=C([C@@H]1C[C@H](NCCO)CO1)N1CCc2ccccc2[C@@H]1c1ccc(F)cc1` (single isomer, unassigned) [Compound 5067], with 0.767 µM; and `C[C@@]1(C(=O)N2CCc3ccccc3[C@@H]2c2ccc(F)cc2)OCCNC[C@H]1O` [Compound 5505], with 0.41 µM.

`NCC1COC(C(=O)N2CCc3ccccc3[C@@H]2c2ccc(F)cc2)C1` (stereo in doubt) [Compound 5009, ((2S,4R)-4-(aminomethyl)tetrahydrofuran-2-yl)((S)-1-(4-fluorophenyl)-3,4-dihydroisoquinolin-2(1H)-yl)methanone]: the EC50 was 0.37 µM. Same read-out and setting: for `C[C@]1(C(=O)N2CCc3ccccc3[C@@H]2c2ccc(F)cc2)CCNCCO1` [Compound 5239] the value was 0.316 µM; for `O=C([C@@H]1CNCCCO1)N1CCc2ccccc2[C@@H]1c1ccc(F)cc1` (single isomer, unassigned) [Compound 5091], 0.408 µM. On the same count and under the same terms, for `CCN[C@H]1C[C@H](C(=O)N2CCc3ccccc3[C@@H]2c2ccc(F)cc2)OC[C@H]1O` [Compound 5508, ((2R,4S,5S)-4-(ethylamino)-5-hydroxytetrahydro-2H-pyran-2-yl)((S)-1-(4-fluorophenyl)-3,4-dihydroisoquinolin-2(1H)-yl)methanone] the value was 0.03 µM.

With `N[C@]1(CO)CC[C@H](C(=O)N2CCc3ccccc3[C@@H]2c2ccc(F)cc2)OC1` [Compound 5216, ((2R,5S)-5-amino-5-(hydroxymethyl)tetrahydro-2H-pyran-2-yl)((S)-1-(4-fluorophenyl)-3,4-dihydroisoquinolin-2(1H)-yl)methanone], the EC50 came out at 0.295 µM. In the case of `NC[C@H]1CC[C@@H](C(=O)N2CCc3ccccc3[C@@H]2c2ccc(F)cc2)O1` [Compound 5001, ((2S,5R)-5-(aminomethyl)tetrahydrofuran-2-yl)((S)-1-(4-fluorophenyl)-3,4-dihydroisoquinolin-2(1H)-yl)methanone], the EC50 worked out at 0.244 µM. On the same count and under the same terms, for `N[C@@H]1CO[C@@H](C(=O)N2CCc3ccccc3[C@@H]2c2ccc(F)cc2)C[C@H]1F` [Compound 5061, ((2R,4R,5R)-5-amino-4-fluorotetrahydro-2H-pyran-2-yl)((S)-1-(4-fluorophenyl)-3,4-dihydroisoquinolin-2(1H)-yl)methanone] the value was 0.478 µM; for `NCC1(O)COC(C(=O)N2CCc3ccccc3[C@@H]2c2ccc(F)cc2)C1` (single isomer, unassigned) [Compound 5006], 0.143 µM; for `CCNC[C@]1(O)CO[C@@H](C(=O)N2CCc3ccccc3[C@@H]2c2ccc(F)cc2)C1` [Compound 5036, ((2R,4S)-4-((ethylamino)methyl)-4-hydroxytetrahydrofuran-2-yl)((S)-1-(4-fluorophenyl)-3,4-dihydroisoquinolin-2(1H)-yl)methanone], 0.356 µM.

On to `C[C@]1(C(=O)N2CCc3ccccc3[C@@H]2c2ccc(F)cc2)OCCNC[C@@H]1O` [Compound 5506], for which the half-maximal effective concentration (EC50) is 0.398 µM.

Consider `CN1C=N[C@H]2C[C@H](C(=O)N3CCc4ccccc4[C@@H]3c3ccc(F)cc3)OC[C@H]21` [Compound 5528, ((S)-1-(4-fluorophenyl)-3,4-dihydroisoquinolin-2(1H)-yl)((3aS,6R,7aS)-3-methyl-3,3a,4,6,7,7a-hexahydropyrano[3,4-d]imidazol-6-yl)methanone hydrochloride], for which the EC50 is 0.168 µM. With `CN[C@H]1C[C@H](C(=O)N2CCc3ccccc3[C@@H]2c2ccc(F)cc2)OC[C@@H]1O` [Compound 5586], the EC50 is 0.219 µM. Still for that read-out and setting: then `NCC1COC(C(=O)N2CCc3ccccc3[C@@H]2c2ccc(F)cc2)C1` (stereo in doubt) [Compound 5008, ((2S,4S)-4-(aminomethyl)tetrahydrofuran-2-yl)((S)-1-(4-fluorophenyl)-3,4-dihydroisoquinolin-2(1H)-yl)methanone], with 0.369 µM. As for `CN(C)[C@H]1C[C@H](C(=O)N2CCc3ccccc3[C@@H]2c2ccc(F)cc2)OC[C@H]1O` [Compound 5447, ((2R,4S,5S)-4-(dimethylamino)-5-hydroxytetrahydro-2H-pyran-2-yl)((S)-1-(4-fluorophenyl)-3,4-dihydroisoquinolin-2(1H)-yl)methanone], the EC50 is 0.659 µM. `N[C@@H]1CCO[C@@H](C(=O)N2CCc3ccccc3[C@@H]2c2ccc(F)cc2F)C1` [Compound 5256]: the EC50 is 0.1 µM. On the same count and under the same terms, for `C[S@@+2]([NH-])([O-])[C@H]1CO[C@@H](C(=O)N2CCc3ccccc3[C@@H]2c2ccc(F)cc2)C[C@@H]1N` (single isomer, unassigned) [Compound 5547] the value was 0.062 µM; for `O=C([C@@H]1OCCNC[C@H]1O)N1CCc2ccccc2[C@@H]1c1ccc(F)cc1` [Compound 5245], 0.35 µM.

Regarding `N[C@H]1CCO[C@@H](C(=O)N2CCc3ccccc3[C@@H]2c2ccc(F)cc2F)C1` [Compound 5500], the EC50 was 0.19 µM.

For the compound `N[C@]12CC[C@](C(=O)N3CCc4ccccc4[C@H]3c3ccc(F)cc3)(C1)OC2` (single isomer, unassigned) [Compound 5023], the concentration for a half-maximal effect (EC50) is 0.212 µM.

The EC50 is the midpoint of the concentration-response curve.
